Literature values, collected in patent US10858388B2, “Selective progesterone receptor modulator (SPRM) regimen” (BAYER PHARMA AKTIENGESELLSCHAFT, priority 2015, dated 2020).

Tests used:
endometrium = conditions: relatively low concentration, WO2009/134178; cited from earlier work
[1] = test system: women with excessive uterine bleeding due to the presence of fibroids; conditions: 5 mg Ulipristal Acetate, cited from earlier work
fibroids = conditions: in vivo; cited from earlier work

COCC(=O)[C@@]1(OC(C)=O)CC[C@H]2[C@@H]3CCC4=CC(=O)CCC4=C3[C@@H](c3ccc(N(C)C)cc3)C[C@@]21C [CDB-4124]
Endometrium during treatment (endometrium): substantial thickening of the endometrium

CC(=O)O[C@]1(C(C)=O)CC[C@H]2[C@@H]3CCC4=CC(=O)CCC4=C3[C@@H](c3ccc(N(C)C)cc3)C[C@@]21C [Ulipristal Acetate]
≤2 ml, indicating Amenorrhea - (%), EoT 13 Weeks ([1]; 13 weeks): 75%
≤2 ml, indicating Amenorrhea - no./total no., EoT 13 Weeks ([1]; 13 weeks): 70/93
Amenorrhea (<2 ml) at EoT (%) 12 Weeks ([1]; data from Jacques Donnez et al): ~75%

CC#C[C@]1(O)CC[C@H]2[C@@H]3CCC4=CC(=O)CCC4=C3[C@@H](c3ccc(N(C)C)cc3)C[C@@]21C [mifepristone]
Size of fibroids and related symptoms (fibroids): decrease the size of fibroids and related symptoms
